In this assay the target is BRD4 (Homo sapiens, UniProt O60885). Put plainly: Time resolved fluorescence resonance energy transfer (TR-FRET) binding assay, bromodomain BRD4. As to conditions: one of the FRET assays described; read-out: FRET BRD4 IC50.

As a reminder, the IC50 is the midpoint of a concentration-inhibition curve. Consider `Cc1nnn(C)c1-c1cnc2c3ccc(NS(C)(=O)=O)nc3n([C@H](c3ccccc3F)C3CCOCC3)c2c1` [Example 240, N-[5-(Dimethyl-1H-1,2,3-triazol-5-yl)-8-[(S)-(2-fluorophenyl)(oxan-4-yl)methyl]-3,8,10-triazatricyclo[7.4.0.0^2,^7]trideca-1(13),2(7),3,5,9,11-hexaen-11-yl]methanesulfonamide], for which the IC50 was below 10 nM.
The same measure for `[2H]C([2H])([2H])c1nnn(C)c1-c1cnc2c3c(N[C@H](C)C4CC4)ncc(S(C)(=O)=O)c3n([C@H](c3ccccc3)C3CCOCC3)c2c1` [Example 114, N-[(1R)-1-Cyclopropylethyl]-10-methanesulfonyl-5-[4-(^2H3)methyl-1-methyl-1H-1,2,3-triazol-5-yl]-8-[(S)-oxan-4-yl(phenyl)methyl]-3,8,12-triazatricyclo[7.4.0.0^2,^7]trideca-1(13),2(7),3,5,9,11-hexaen-13-amine]: below 10 nM; for `Cc1nnn(C)c1-c1cnc2c3c(NS(C)(=O)=O)ncc(S(C)(=O)=O)c3n([C@H](c3ccccc3)C3CCOCC3)c2c1` [Example 105, N-[5-(Dimethyl-1H-1,2,3-triazol-5-yl)-10-methanesulfonyl-8-[(S)-oxan-4-yl(phenyl)methyl]-3,8,12-triazatricyclo[7.4.0.0^2,^7]trideca-1(13),2(7),3,5,9,11-hexaen-13-yl]methanesulfonamide]: below 10 nM; for `COc1nccc2c3ncc(-c4c(C)nnn4C)cc3n(C(c3ccccc3F)C3CCOCC3)c12` (single isomer, unassigned) [Example 18, 5-(Dimethyl-1H-1,2,3-triazol-5-yl)-8-[(2-fluorophenyl)(oxan-4-yl)methyl]-10-methoxy-3,8,11-triazatricyclo[7.4.0.0^2,^7]trideca-1(13),2(7),3,5,9,11-hexaene]: below 10 nM.
In the case of “2-{5-[4-(^2H3)Methyl-1-methyl-1H-1,2,3-triazol-5-yl]-8-[1-(pyridin-2-yl)butyl]-3,8,12-triazatricyclo[7.4.0.0^2,^7]trideca-1(13),2(7),3,5,9,11-hexaen-11-yl}propan-2-ol [Example 357]” it was below 10 nM; in that of `Cc1nnn(C)c1-c1cnc2c3cnc(C#N)nc3n([C@H](c3ccccc3)C3CCOCC3)c2c1` [Example 143, 5-(Dimethyl-1H-1,2,3-triazol-5-yl)-8-[(S)-oxan-4-yl(phenyl)methyl]-3,8,10,12-tetraazatricyclo[7.4.0.0^2,^7]trideca-1(9),2(7),3,5,10,12-hexaene-11-carbonitrile], below 1500 nM.
For the compound `[2H]C([2H])([2H])c1nnn(C)c1-c1cnc2c3c(OC)ncc(S(C)(=O)=O)c3n(C(c3ncccc3F)C3CCOCC3)c2c1` (centres unmarked) [Example 65, 8-[(3-Fluoropyridin-2-yl)(oxan-4-yl)methyl]-10-methanesulfonyl-13-methoxy-5-[4-(^2H3)methyl-1-methyl-1H-1,2,3-triazol-5-yl]-3,8,12-triazatricyclo[7.4.0.0^2,^7]trideca-1(13),2(7),3,5,9,11-hexaene], the IC50 was below 1500 nM.
For the compound `[2H]C([2H])([2H])c1nnn(C)c1-c1cnc2c3c(OC)ncc(S(C)(=O)=O)c3n(C(c3c(F)cc(F)cc3F)C3CCOCC3)c2c1` (single isomer, unassigned) [Example 84, 10-Methanesulfonyl-13-methoxy-5-[4-(^2H3)methyl-1-methyl-1H-1,2,3-triazol-5-yl]-8-[oxan-4-yl(2,4,6-trifluorophenyl)methyl]-3,8,12-triazatricyclo[7.4.0.0^2,^7]trideca-1(13),2(7),3,5,9,11-hexaene], the IC50 was below 1500 nM.
In the case of `Cc1nnn(C)c1-c1cc2c(cn1)c1ncc(C(C)(C)O)cc1n2[C@H](c1ccccc1)C1CCOCC1` [Example 368] it was below 10 nM.
In the case of `[2H]C([2H])([2H])c1nnn(C)c1-c1cnc2c3ccc(-c4c(C([2H])([2H])[2H])nnn4C)nc3n(C(c3ncccc3F)C3CCOCC3)c2c1` (centres unmarked) [Example 248, 8-[(3-Fluoropyridin-2-yl)(oxan-4-yl)methyl]-5,11-bis[4-(^2H3)methyl-1-methyl-1H-1,2,3-triazol-5-yl]-3,8,10-triazatricyclo[7.4.0.0^2,^7]trideca-1(13),2(7),3,5,9,11-hexaene] it was below 10 nM; in that of `Cc1nnn(C)c1-c1cnc2c3cncc(S(C)(=O)=O)c3n(C(c3ccccc3)C3CCC(F)(F)CC3)c2c1` (centres unmarked) [Example 290, 8-[(4,4-Difluorocyclohexyl)(phenyl)methyl]-5-(dimethyl-1H-1,2,3-triazol-5-yl)-10-methanesulfonyl-3,8,12-triazatricyclo[7.4.0.0^2,^7]trideca-1(13),2(7),3,5,9,11-hexaene], below 1 nM; in that of `Cc1nnn(C)c1-c1cnc2c3ccc(N4CCS(=O)(=O)CC4C)nc3n([C@H](c3ccccc3)C3CCOCC3)c2c1` (stereo partly drawn) [Example 210, 4-[5-(Dimethyl-1H-1,2,3-triazol-5-yl)-8-[(S)-oxan-4-yl(phenyl)methyl]-3,8,10-triazatricyclo[7.4.0.0^2,^7]trideca-1(9),2(7),3,5,10,12-hexaen-11-yl]-3-methyl-1λ^6,4-thiomorpholine-1,1-dione], below 10 nM.
The same measure for `Cc1noc(C)c1-c1cnc2c3c(NS(=O)(=O)C(C)C)ncc(S(C)(=O)=O)c3n([C@H](c3ccccc3)C3CCOCC3)c2c1` [Example 100, N-[5-(Dimethyl-1,2-oxazol-4-yl)-10-methanesulfonyl-8-[(S)-oxan-4-yl(phenyl)methyl]-3,8,12-triazatricyclo[7.4.0.0^2,^7]trideca-1(13),2(7),3,5,9,11-hexaen-13-yl]propane-2-sulfonamide]: below 10 nM; for `Cc1nnn(C)c1-c1ccc2c3ncc(N4CCS(=O)(=O)CC4)cc3n([C@H](c3ccccc3)C3CCOCC3)c2n1` [Example 381, 4-[11-(Dimethyl-1H-1,2,3-triazol-5-yl)-8-[(S)-oxan-4-yl(phenyl)methyl]-3,8,10-triazatricyclo[7.4.0.0^2,^7]trideca-1(9),2(7),3,5,10,12-hexaen-5-yl]-1λ^6,4-thiomorpholine-1,1-dione]: below 10 nM.
Turning to `Cc1nnn(C)c1-c1cnc2c3ccc(N4CCS(=O)(=O)C(C)C4)nc3n([C@H](c3ccccc3)C3CCOCC3)c2c1` (stereo partly drawn) [Example 213, 4-[5-(Dimethyl-1H-1,2,3-triazol-5-yl)-8-[(S)-oxan-4-yl(phenyl)methyl]-3,8,10-triazatricyclo[7.4.0.0^2,^7]trideca-1(9),2(7),3,5,10,12-hexaen-11-yl]-2-methyl-1λ^6,4-thiomorpholine-1,1-dione], the concentration for half-maximal inhibition (IC50) is below 1 nM.
The same measure for `[2H]C([2H])([2H])c1nnn(C)c1-c1cnc2c3ccc(C(C)=O)nc3n([C@H](c3ccccc3)C3CCOCC3)c2c1` [Example 202, 1-{5-[4-(^2H3)Methyl-1-methyl-1H-1,2,3-triazol-5-yl]-8-[(S)-oxan-4-yl(phenyl)methyl]-3,8,10-triazatricyclo[7.4.0.0^2,^7]trideca-1(9),2(7),3,5,10,12-hexaen-11-yl}ethan-1-one]: below 10 nM; for `Cc1nnn(C)c1-c1cnc2c3ccc(-c4cnn(C(C)C)c4)nc3n([C@H](c3ccccc3)C3CCOCC3)c2c1` [Example 149, 5-(Dimethyl-1H-1,2,3-triazol-5-yl)-8-[(S)-oxan-4-yl(phenyl)methyl]-11-[1-(propan-2-yl)-1H-pyrazol-4-yl]-3,8,10-triazatricyclo[7.4.0.0^2,^7]trideca-1(13),2(7),3,5,9,11-hexaene]: below 10 nM.
The same measure for `Cc1nnn(C)c1-c1ccc2c3ncc(C(C)(C)O)cc3n([C@@H](c3ccccc3)C3CCOCC3)c2n1` [Example 378, 2-[11-(Dimethyl-1H-1,2,3-triazol-5-yl)-8-[(R)-oxan-4-yl(phenyl)methyl]-3,8,10-triazatricyclo[7.4.0.0^2,^7]trideca-1(9),2(7),3,5,10,12-hexaen-5-yl]propan-2-ol]: below 10 nM.
The same measure for `COc1ccc2c3ncc(-c4c(C)nnn4C)cc3n(C(c3ccccc3F)C3CCOCC3)c2n1` (racemic) [Example 28, 5-(Dimethyl-1H-1,2,3-triazol-5-yl)-8-[(2-fluorophenyl)(oxan-4-yl)methyl]-11-methoxy-3,8,10-triazatricyclo[7.4.0.0^2,^7]trideca-1(13),2(7),3,5,9,11-hexaene]: below 10 nM.
As to `[2H]C([2H])([2H])c1nnn(C)c1-c1cnc2c3c(OC4COC4)ncc(S(C)(=O)=O)c3n([C@H](c3ccccc3)C3CCOCC3)c2c1` [Example 111, 10-Methanesulfonyl-5-[4-(^2H3)methyl-1-methyl-1H-1,2,3-triazol-5-yl]-8-[(S)-oxan-4-yl(phenyl)methyl]-13-(oxetan-3-yloxy)-3,8,12-triazatricyclo[7.4.0.0^2,^7]trideca-1(13),2(7),3,5,9,11-hexaene], the half-inhibitory concentration (IC50) was below 10 nM.
In the case of `Cc1nnn(C)c1-c1cnc2c3ccc(N4CCN(C(=O)N(C)C)CC4)nc3n([C@H](c3ccccc3F)C3CCOCC3)c2c1` [Example 268, 4-[5-(Dimethyl-1H-1,2,3-triazol-5-yl)-8-[(S)-(2-fluorophenyl)(oxan-4-yl)methyl]-3,8,10-triazatricyclo[7.4.0.0^2,^7]trideca-1(13),2(7),3,5,9,11-hexaen-11-yl]-N,N-dimethylpiperazine-1-carboxamide] it was below 1 nM; in that of `CCOP(=O)(O)CCNc1ccc2c3ncc(-c4c(C)nnn4C)cc3n([C@H](c3ccccc3)C3CCOCC3)c2n1` [Example 220, (2-{[5-(Dimethyl-1H-1,2,3-triazol-5-yl)-8-[(S)-oxan-4-yl(phenyl)methyl]-3,8,10-triazatricyclo[7.4.0.0^2,^7]trideca-1(9),2(7),3,5,10,12-hexaen-11-yl]amino}ethyl)(ethoxy)phosphinic acid], below 1 nM.
In the case of `[2H]C([2H])([2H])c1nnn(C)c1-c1cnc2c3c(OC)ncc(CO)c3n([C@H](c3ccccc3)C3CCOCC3)c2c1` [Example 139, {13-methoxy-5-[4-(^2H3)methyl-1-methyl-1H-1,2,3-triazol-5-yl]-8-[(S)-oxan-4-yl(phenyl)methyl]-3,8,12-triazatricyclo[7.4.0.0^2,^7]trideca-1(9),2,4,6,10,12-hexaen-10-yl}methanol] it was below 10 nM.

The record behind these values is patent publication US9725449B2, “Tricyclic compounds as anticancer agents” (BRISTOL-MYERS SQUIBB COMPANY, priority 2015, dated 2017).
